This note sets out measurements from PubChem BioAssay AID1259411 (Chemical Carcinogenesis Research Information System (CCRIS), 2018).

For the data set, the system named is rodent carcinogenicity bioassays, tumor incidence. Kind of data set: CCRIS carcinogenicity studies. The settings on record: Dose: 0, Dose: 0. An excerpt:
The CCRIS database contains chemical records with carcinogenicity, mutagenicity, tumor promotion, and tumor inhibition test results. It was developed by the National Cancer Institute (NCI). Data are derived from studies cited in primary journals, current awareness tools, NCI reports, and other sources. Test results have been reviewed by experts in carcinogenesis and mutagenesis.
CCRIS provides historical information from the years 1985 - 2011. It is no longer updated.
This is an archive assay for CCRIS carcinogenicity studies.

Active and inactive are the calls of the source. How the calls were made is not given here.

Regarding `CC(O)c1ccccc1` (centres undefined), the carcinogen call by setting is: (Species: MOUSE, Strain/Sex: B6C3F1/FEMALE, Route: GAVAGE, 375, 750 MG/KG IN CORN OIL 5 D/WK FOR 103 WK (STUDY DURATION: 104 WK), 375, 750 MG/KG IN CORN OIL 5 D/WK FOR 103 WK (STUDY DURATION: 104 WK)) “inactive; negative”; (Species: MOUSE, Strain/Sex: B6C3F1/MALE, Route: GAVAGE, 375, 750 MG/KG IN CORN OIL 5 D/WK FOR 103 WK (STUDY DURATION: 104 WK), 375, 750 MG/KG IN CORN OIL 5 D/WK FOR 103 WK (STUDY DURATION: 104 WK)) “inactive; negative”; (Species: RAT, Strain/Sex: F344/FEMALE, Route: GAVAGE, 375, 750 MG/KG IN CORN OIL 5 D/WK FOR 103 WK (STUDY DURATION: 105 WK), 375, 750 MG/KG IN CORN OIL 5 D/WK FOR 103 WK (STUDY DURATION: 105 WK)) “inactive; negative”; (Species: RAT, Strain/Sex: F344/MALE, Route: GAVAGE, 375, 750 MG/KG IN CORN OIL 5 D/WK FOR 103 WK (STUDY DURATION: 105 WK), 375, 750 MG/KG IN CORN OIL 5 D/WK FOR 103 WK (STUDY DURATION: 105 WK), Tumor Site: Type of Lesion: KIDNEY: TUBULAR CELL ADENOMA, TUBULAR CELL ADENOMA OR ADENOCARCINOMA) “active; positive”.
With `OCCOCCO`, the carcinogen call runs as follows: (Species: RAT, Strain/Sex: F344/FEMALE, Route: ORAL, 1.25, 2.5% IN DRINKING WATER FOR 108 WK (STUDY DURATION: 108 WK), 1.25, 2.5% IN DRINKING WATER FOR 108 WK (STUDY DURATION: 108 WK)) “inactive; negative”; (Species: RAT, Strain/Sex: F344/MALE, Route: ORAL, 1.25, 2.5% IN DRINKING WATER FOR 108 WK (STUDY DURATION: 108 WK), 1.25, 2.5% IN DRINKING WATER FOR 108 WK (STUDY DURATION: 108 WK)) “inactive; negative”.
As for `ClC1=C(Cl)C2(Cl)C3C(Cl)C(Cl)CC3C1(Cl)C2(Cl)Cl` (centres undefined), the carcinogen call was “active; positive” (Species: MOUSE, Strain/Sex: C57B1/MALE, Route: ORAL, 50 PPM IN DIET FOR 24 MO (STUDY DURATION: 24 MO), Tumor Site: Type of Lesion: LIVER: ADENOMA OR CARCINOMA); “inactive; negative” (Species: MOUSE, Strain/Sex: ICR/FEMALE, Route: ORAL, 1, 5, 12.5 PPM IN DIET FOR 104 WK (STUDY DURATION: 104 WK), 1, 5, 12.5 PPM IN DIET FOR 104 WK (STUDY DURATION: 104 WK)); “active; positive” (Species: MOUSE, Strain/Sex: ICR/MALE, Route: ORAL, 1, 5, 12.5 PPM IN DIET FOR 104 WK (STUDY DURATION: 104 WK), 1, 5, 12.5 PPM IN DIET FOR 104 WK (STUDY DURATION: 104 WK), Tumor Site: Type of Lesion: LIVER: ADENOMA, HEMANGIOMA); “active; positive” (Species: RAT, Strain/Sex: F344/FEMALE, Route: ORAL, 1, 5, 25 PPM IN DIET FOR 130 WK (STUDY DURATION: 130 WK), 1, 5, 25 PPM IN DIET FOR 130 WK (STUDY DURATION: 130 WK), Tumor Site: Type of Lesion: MAMMARY GLAND: FIBROADENOMA); “active; positive” (Species: RAT, Strain/Sex: F344/MALE, Route: ORAL, 1, 5, 25 PPM IN DIET FOR 130 WK (STUDY DURATION: 130 WK), 1, 5, 25 PPM IN DIET FOR 130 WK (STUDY DURATION: 130 WK), Tumor Site: Type of Lesion: LIVER: NODULE).
In the case of `CCOC(=O)Nc1cccc(OC(=O)Nc2ccccc2)c1`, the carcinogen call is “inactive; negative” (Species: Mouse, Strain/Sex: NMRI/Female (50/Group), Route: Oral, 30, 150, 750 ppm in diet for 104 wk, 30, 150, 750 ppm in diet for 104 wk); “inactive; negative” (Species: Mouse, Strain/Sex: NMRI/Male (50/Group), Route: Oral, 30, 150, 750 ppm in diet for 104 wk, 30, 150, 750 ppm in diet for 104 wk); “inactive; negative” (Species: Rat, Strain/Sex: Wistar KFM-Han/Female (50/Group), Route: Oral, 60, 300, 1500 ppm in diet for 2 yr, 60, 300, 1500 ppm in diet for 2 yr); “inactive; negative” (Species: Rat, Strain/Sex: Wistar KFM-Han/Male (50/Group), Route: Oral, 60, 300, 1500 ppm in diet for 2 yr, 60, 300, 1500 ppm in diet for 2 yr).
`O=[N+]([O-])NC1=NCCN1Cc1ccc(Cl)nc1`: the carcinogen call reads like this: (Species: Mouse, Strain/Sex: B6C3F1/Female (60/Group), Route: Oral, 100, 330, 1000 ppm and 0, 2000 ppm (2 related studies) of 95.3% imidacloprid in diet for 24 mo, study duration 24 mo, 100, 330, 1000 ppm and 0, 2000 ppm (2 related studies) of 95.3% imidacloprid in diet for 24 mo, study duration 24 mo) “inactive; negative”; (Species: Mouse, Strain/Sex: B6C3F1/Male (60/Group), Route: Oral, 100, 330, 1000 ppm and 0, 2000 ppm (2 related studies) of 95.3% imidacloprid in diet for 24 mo, study duration 24 mo, 100, 330, 1000 ppm and 0, 2000 ppm (2 related studies) of 95.3% imidacloprid in diet for 24 mo, study duration 24 mo) “inactive; negative”; (Species: Rat, Strain/Sex: Wistar/Female (60/Group), Route: Oral, 100, 300, 900 ppm and 0;1800 ppm (2 related studies) of 94.3% imidacloprid in diet for 24 mo, study duration 24 mo, 100, 300, 900 ppm and 0;1800 ppm (2 related studies) of 94.3% imidacloprid in diet for 24 mo, study duration 24 mo) “inactive; negative”; (Species: Rat, Strain/Sex: Wistar/Male (60/Group), Route: Oral, 100, 300, 900 ppm and 0, 1800 ppm (2 related studies) of 94.3% imidacloprid in diet for 24 mo, study duration 24 mo, 100, 300, 900 ppm and 0, 1800 ppm (2 related studies) of 94.3% imidacloprid in diet for 24 mo, study duration 24 mo, Tumor Site: Type of Lesion: Liver: Cholangiocellular carcinoma (2/60 at 1800 ppm vs 0/60 all other groups)) “active; positive”.
